Reference: PubChem BioAssay AID1918933 (Molecular Pharmacology Branch, DTP, NCI, 2023)

System: 186277-243-T-J2-PDC complex spheroid viability
Assay: Anticancer human tumor 186277-243-T-J2-PDC patient-derived colon adenocarcinoma cell line growth inhibition
Details: for IC50: curve of first compound; for viability, T/C: stronger effect = lower value
How it was run: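 Complex spheroids of tumor cells with HUVEC and human MSCs, exposed to iadademstat combined with other agents. Each agent tested in half-log steps from near clinical Cmax (else 10 microM top), DMSO ≤0.25%.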

[1] = second compound 0.1 µM, first compound 0.0316 µM
[2] = second compound 0.1 µM, first compound 0.1 µM
[3] = second compound 0.1 µM, first compound 0.316 µM
[4] = second compound 0.1 µM, first compound 1 µM
[5] = second compound 0.1 µM, first compound 3.16 µM
[6] = second compound 0.1 µM, first compound 10 µM
[7] = second compound 0.316 µM, first compound 0.0316 µM
[8] = second compound 0.316 µM, first compound 0.1 µM
[9] = second compound 0.316 µM, first compound 0.316 µM
[10] = second compound 0.316 µM, first compound 1 µM
[11] = second compound 0.316 µM, first compound 3.16 µM
[12] = second compound 0.316 µM, first compound 10 µM
[13] = second compound 1 µM, first compound 0.0316 µM
[14] = second compound 1 µM, first compound 0.1 µM
[15] = second compound 1 µM, first compound 0.316 µM
[16] = second compound 1 µM, first compound 1 µM
[17] = second compound 1 µM, first compound 3.16 µM
[18] = second compound 1 µM, first compound 10 µM
[19] = second compound 3.16 µM, first compound 0.0316 µM
[20] = second compound 3.16 µM, first compound 0.1 µM
[21] = second compound 3.16 µM, first compound 0.316 µM
[22] = second compound 3.16 µM, first compound 1 µM
[23] = second compound 3.16 µM, first compound 3.16 µM
[24] = second compound 3.16 µM, first compound 10 µM
[25] = second compound 10 µM, first compound 0.0316 µM
[26] = second compound 10 µM, first compound 0.1 µM
[27] = second compound 10 µM, first compound 0.316 µM
[28] = second compound 10 µM, first compound 1 µM
[29] = second compound 10 µM, first compound 3.16 µM
[30] = second compound 10 µM, first compound 10 µM
[31] = second compound 0.1 µM, first compound 0.00316 µM
[32] = second compound 0.1 µM, first compound 0.01 µM
[33] = second compound 0.316 µM, first compound 0.00316 µM
[34] = second compound 0.316 µM, first compound 0.01 µM
[35] = second compound 1 µM, first compound 0.00316 µM
[36] = second compound 1 µM, first compound 0.01 µM
[37] = second compound 3.16 µM, first compound 0.00316 µM
[38] = second compound 3.16 µM, first compound 0.01 µM
[39] = second compound 10 µM, first compound 0.00316 µM
[40] = second compound 10 µM, first compound 0.01 µM
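Further: 7 day exposure to compounds.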
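Wherever viability, T/C is given: 100% = DMSO vehicle control viability.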

| SMILES | IC50 (second compound 0.1 µM) [nM] | IC50 (second compound 0.316 µM) [nM] | IC50 (second compound 1 µM) [nM] | IC50 (second compound 3.16 µM) [nM] | IC50 (second compound 10 µM) [nM] | viability, T/C [1] [%] | viability, T/C [2] [%] | viability, T/C [3] [%] | viability, T/C [4] [%] | viability, T/C [7] [%] | viability, T/C [8] [%] | viability, T/C [9] [%] | viability, T/C [10] [%] | viability, T/C [13] [%] | viability, T/C [14] [%] | viability, T/C [15] [%] | viability, T/C [16] [%] | viability, T/C [19] [%] | viability, T/C [20] [%] | viability, T/C [21] [%] | other results |
| --- | --- | --- | --- | --- | --- | --- | --- | --- | --- | --- | --- | --- | --- | --- | --- | --- | --- | --- | --- | --- | --- |
| CC(C)c1c(-c2ccccc2)nc2c(C#N)c[nH]n2c1=O + NC1CCC(NC2CC2c2ccccc2)CC1 | > 10000 | > 10000 | > 10000 | > 10000 | > 10000 | 112 | 118 | 114 | 105 | 108 | 125 | 115 | 115 | 110 | 110 | 108 | 112 | 112 | 119 | 112 | viability, T/C [5]: 114%; viability, T/C [6]: 103%; viability, T/C [11]: 108%; viability, T/C [12]: 96.8%; viability, T/C [17]: 109%; viability, T/C [18]: 106%; viability, T/C [22]: 121%; viability, T/C [23]: 107%; viability, T/C [24]: 105%; viability, T/C [25]: 104%; viability, T/C [26]: 101%; viability, T/C [27]: 107%; viability, T/C [28]: 110%; viability, T/C [29]: 101%; viability, T/C [30]: 90.5% |
| CC1COCCN1c1cc(-c2ccnn2C)c2ccnc(-c3ccn[nH]3)c2n1 (stereo not given) + NC1CCC(NC2CC2c2ccccc2)CC1 | 6.56 | 6.04 | 5.63 | 6.34 | 5.91 | 10.9 | 9.28 | 10 | 11.5 | 10.2 | 8.48 | 9.85 | 11.8 | 11.1 | 8.48 | 9.78 | 12.1 | 10.4 | 8.64 | 9.76 | viability, T/C [31]: 84.2%; viability, T/C [32]: 30.2%; viability, T/C [33]: 74.5%; viability, T/C [34]: 30.9%; viability, T/C [35]: 69.3%; viability, T/C [36]: 30.8%; viability, T/C [37]: 79.9%; viability, T/C [38]: 30.4%; viability, T/C [22]: 12%; viability, T/C [39]: 71.8%; viability, T/C [40]: 31.6%; viability, T/C [25]: 11%; viability, T/C [26]: 9.23%; viability, T/C [27]: 9.95%; viability, T/C [28]: 11.8% |
| CC1COCCN1c1cc(C2(S(C)(=N)=O)CC2)nc(-c2ccnc3[nH]ccc23)n1 (stereo not given) + NC1CCC(NC2CC2c2ccccc2)CC1 | 438 | 457 | 440 | 517 | 533 | 123 | 108 | 63 | 17.9 | 117 | 115 | 65.1 | 17.7 | 118 | 112 | 62.8 | 17.5 | 122 | 123 | 71.3 | viability, T/C [5]: 10.8%; viability, T/C [6]: 6.11%; viability, T/C [11]: 11%; viability, T/C [12]: 7.27%; viability, T/C [17]: 11.1%; viability, T/C [18]: 6.95%; viability, T/C [22]: 21.8%; viability, T/C [23]: 11.5%; viability, T/C [24]: 7.92%; viability, T/C [25]: 115%; viability, T/C [26]: 123%; viability, T/C [27]: 71%; viability, T/C [28]: 26.1%; viability, T/C [29]: 16.7%; viability, T/C [30]: 9.23% |
| COc1ccc([C@@H](O)c2cc(-c3ncnc4cc(N5CCOCC5)ccc34)c(F)cc2Cl)nn1 + NC1CCC(NC2CC2c2ccccc2)CC1 | 4320 | 4430 | 4480 | 4300 | 3860 | 112 | 119 | 112 | 93.2 | 128 | 143 | 105 | 100 | 116 | 118 | 108 | 109 | 122 | 126 | 122 | viability, T/C [5]: 67.3%; viability, T/C [6]: 7%; viability, T/C [11]: 72.7%; viability, T/C [12]: 5.45%; viability, T/C [17]: 68.7%; viability, T/C [18]: 6.38%; viability, T/C [22]: 97.9%; viability, T/C [23]: 67.5%; viability, T/C [24]: 5.71%; viability, T/C [25]: 109%; viability, T/C [26]: 118%; viability, T/C [27]: 104%; viability, T/C [28]: 101%; viability, T/C [29]: 59%; viability, T/C [30]: 5.79% |
| O=C(C=Cn1cnc(-c2cc(C(F)(F)F)cc(C(F)(F)F)c2)n1)NNc1cnccn1 + NC1CCC(NC2CC2c2ccccc2)CC1 | 16.6 | 18.6 | 17 | 18.2 | 16.8 | 19.7 | 5.58 | 3.09 | 0.76 | 20.9 | 10.7 | 3.03 | 2.56 | 19.3 | 7.63 | 3.96 | 0.59 | 19.2 | 5.56 | 5.32 | viability, T/C [31]: 98.7%; viability, T/C [32]: 73.7%; viability, T/C [33]: 98.9%; viability, T/C [34]: 83.6%; viability, T/C [35]: 91.4%; viability, T/C [36]: 76.3%; viability, T/C [37]: 121%; viability, T/C [38]: 83.3%; viability, T/C [22]: 0.63%; viability, T/C [39]: 131%; viability, T/C [40]: 76.8%; viability, T/C [25]: 17.3%; viability, T/C [26]: 4.86%; viability, T/C [27]: 3.33%; viability, T/C [28]: 0.57% |
